Test results published in publication PMC11358092, “Caspofungin enhances the potency of rifampin against Gram-negative bacteria” (Frontiers in Microbiology, 2024).
Structures can show the parent of a compound that is named as a salt. Where two headings read alike, the source gives them in different places.

Experiments:
E. coli MG1655 [1] = assay: High-throughput screening of FDA-approved drug library for antibiotic adjuvants (growth inhibition, OD600); format: cell-based, Escherichia coli; conditions: library drug alone, LB medium, 96-well, 8 h static culture at 37°C, relative to PMBN (positive) and DMSO (negative) controls, %, table head prints no unit
E. coli MG1655 [2] = assay: as above; format: cell-based, Escherichia coli
[3] = library drug with 2 μg/mL rifampin, LB medium, 96-well, 8 h static culture at 37°C, OD600, relative to PMBN (positive) and DMSO (negative) controls, %, table head prints no unit

| Compound | Growth inhibition, Compound (E. coli MG1655 [1]) [%] | also measured |
| --- | --- | --- |
| CO[C@@]1(NC(=O)CSC(F)F)C(=O)N2C(C(=O)[O-])=C(CSc3nnnn3CCO)CO[C@@H]21.[Na+] [Flomoxef sodium] | 108 | Growth inhibition, Compound + rifampin (E. coli MG1655 [2]): 101% |
| O=C(O)c1cn(C2CC2)c2cc(N3CCNCC3)c(F)cc2c1=O [Ciprofloxacin hydrochloride] | – | Growth inhibition, Compound (E. coli MG1655 [2]): 98% |
| Colistimethate Sodium | 94 | Growth inhibition, Compound + rifampin (E. coli MG1655 [2]; [3]): 95% |
| Streptozocin | 62 | Growth inhibition, Compound + rifampin (E. coli MG1655 [2]): 69% |
| Colistin Methanesulfonate (sodium salt) | 87 | Growth inhibition, Compound + rifampin (E. coli MG1655 [2]; [3]): 102% |
| O=C(O)c1cn(C2CC2)c2cc(N3CCNCC3)c(F)cc2c1=O [Ciprofloxacin hydrochloride hydrate] | – | Growth inhibition, Compound (E. coli MG1655 [2]): 101% |
| O=C(Cn1cnnn1)N[C@@H]1C(=O)N2C(C(=O)[O-])=C(CSc3nncs3)CS[C@H]12.[Na+] [Ceftezole sodium] | 109 | Growth inhibition, Compound + rifampin (E. coli MG1655 [2]): 102% |
| Cefetamet pivoxil hydrochloride | 98 | Growth inhibition, Compound + rifampin (E. coli MG1655 [2]): 79% |
| Polymyxin B sulfate (1404-26-8 free base) | – | Growth inhibition, Compound + rifampin (E. coli MG1655 [2]; [3]): 104% |
| Colistin sulfate (1066-17-7 free base) | 104 | Growth inhibition, Compound + rifampin (E. coli MG1655 [2]; [3]): 113% |
| Cn1nnnc1SCC1=C(C(=O)O)N2C(=O)[C@@H](NC(=O)[C@H](OC=O)c3ccccc3)[C@H]2SC1 [Cefamandole nafate] | 88 | – |
| CC(=O)OC[C@H]1O[C@@H]([S-])[C@H](OC(C)=O)[C@@H](OC(C)=O)[C@@H]1OC(C)=O.CCP(CC)CC.[Au+] [Auranofin] | 64 | Growth inhibition, Compound + rifampin (E. coli MG1655 [2]): 60% |
| C[C@@H](O)[C@H]1C(=O)N2C(C(=O)O)=C(S[C@@H]3CN[C@H](CNS(N)(=O)=O)C3)[C@H](C)[C@H]12 [Doripenem] | 95 | – |
| CN1CCN(c2c(F)cc3c(=O)c(C(=O)O)cn4c3c2SCC4)CC1.Cl [Rufloxacin hydrochloride] | 113 | Growth inhibition, Compound + rifampin (E. coli MG1655 [2]): 100% |
| O=C([O-])C1=C(CSc2nnnn2CS(=O)(=O)[O-])CS[C@@H]2[C@H](NC(=O)[C@H](O)c3ccccc3)C(=O)N12.[Na+].[Na+] [Cefonicid sodium] | 59 | – |
| CN1CCN(c2c(F)cc3c(=O)c(C(=O)O)cn4c3c2OCN4C)CC1 [Marbofloxacin] | 108 | – |
| NCC[C@H](O)C(=O)N[C@@H]1C[C@H](N)[C@@H](O[C@H]2O[C@H](CN)[C@@H](O)[C@H](O)[C@H]2O)[C@H](O)[C@H]1O[C@H]1O[C@H](CO)[C@@H](O)[C@H](N)[C@H]1O [Amikacin] | 105 | – |
| CO/N=C(\C(=O)N[C@@H]1C(=O)N2C(C(=O)O)=C(CSc3nc(C)c(CC(=O)O)s3)CS[C@H]12)c1csc(N)n1 [Cefodizime Sodium] | 88 | – |
| CO/N=C1\CN(c2nc3c(cc2F)c(=O)c(C(=O)O)cn3C2CC2)CC1CN (centres unmarked) [Gemifloxacin mesylate] | 105 | – |

| Compound | Growth inhibition, Compound (E. coli MG1655 [1]) [%] | also measured |
| --- | --- | --- |
| Cc1oc(=O)oc1CN1CCN(c2cc3c(cc2F)c(=O)c(C(=O)O)c2n3C(C)S2)CC1 (centres unmarked) [Prulifloxacin] | 100 | – |
| CO[C@@]1(NC(=O)CSCC#N)C(=O)N2C(C(=O)O)=C(CSc3nnnn3C)CS[C@@H]21 [Cefmetazole sodium] | 96 | – |
| NC[C@H]1O[C@H](O[C@H]2[C@H](O)[C@@H](O[C@H]3O[C@H](CO)[C@@H](O)[C@H](N)[C@H]3O)[C@H](N)C[C@@H]2N)[C@H](O)[C@@H](O)[C@@H]1O [Kanamycin sulfate] | 109 | – |
| C[C@@H](O)[C@H]1C(=O)N2C(C(=O)O)=C(S[C@@H]3CN[C@H](C(=O)N(C)C)C3)[C@H](C)[C@H]12 [Meropenem] | 90 | – |
| CC1(C)S[C@@H]2[C@H](NC(=O)C(C(=O)O)c3ccccc3)C(=O)N2[C@H]1C(=O)O (some centres unmarked) [Carbenicillin disodium] | 89 | – |
| CC1(C)S[C@@H]2[C@H](NC(=O)[C@H](N)c3ccc(O)cc3)C(=O)N2[C@H]1C(=O)[O-].[Na+] [Amoxicillin Sodium] | 98 | – |
| CS(=O)(=O)c1ccc([C@@H](O)[C@@H](CO)NC(=O)C(Cl)Cl)cc1 [Thiamphenicol] | 66 | – |
| NC[C@H]1O[C@H](O[C@H]2[C@H](O)[C@@H](O[C@H]3O[C@H](CO)[C@@H](O)[C@H](N)[C@H]3O)[C@H](N)C[C@@H]2N)[C@H](N)C[C@@H]1O [Tobramycin] | 107 | – |
| Cc1nnc(SCC2=C(C(=O)O)N3C(=O)[C@@H](NC(=O)Cn4cnnn4)[C@H]3SC2)s1 [Cefazolin] | 102 | – |
| CC1CCc2cc(F)cc3c(=O)c(C(=O)O)cn1c23 (centres unmarked) [Flumequine] | 108 | – |
| CN(C)[C@@H]1C(O)=C(C(N)=O)C(=O)[C@@]2(O)C(O)=C3C(=O)c4c(O)cccc4[C@@](C)(O)[C@H]3[C@H](O)[C@@H]12 [Oxytetracycline Dihydrate] | 101 | – |
| O=[N+]([O-])C(Br)(CO)CO [Bronopol] | 100 | – |
| C[C@@H]1O[C@@H]1P(=O)(O)O [Fosfomycin Disodium] | 102 | – |
| CO/N=C(\C(=O)N[C@@H]1C(=O)N2C(C(=O)O)=C(COC(C)=O)CS[C@H]12)c1csc(N)n1 [Cefotaxime] | 113 | – |
| [H]/N=C(\N/C(=N/[H])NCCCCCCNC(=N)NC(=N)Nc1ccc(Cl)cc1)Nc1ccc(Cl)cc1 [Chlorhexidine hydrochloride] | 107 | – |
| COS(=O)(=O)[O-].C[n+]1c2ccccc2nc2ccccc21 [Phenazine methosulfate] | 80 | Growth inhibition, Compound + rifampin (E. coli MG1655 [2]; [3]): 76% |
| CNC[C@H](O)[C@@H](O)[C@H](O)[C@H](O)CO.Nc1nc(-n2cc(C(=O)O)c(=O)c3cc(F)c(N4CC(O)C4)c(Cl)c32)c(F)cc1F [Delafloxacin meglumine] | 103 | – |
| Cc1nnc(SCC2=C(C(=O)O)N3C(=O)[C@@H](NC(=O)Cn4cc(Cl)c(=O)c(Cl)c4)[C@H]3SC2)s1 [Cefazedone] | 111 | – |
| CO/N=C(\C(=O)N[C@@H]1C(=O)N2C(C(=O)O)=C(C[n+]3cccc4c3CCC4)CS[C@H]12)c1csc(N)n1.O=S(=O)([O-])O [Cefpirome sulfate] | 93 | – |

| Compound | Growth inhibition, Compound (E. coli MG1655 [1]) [%] | also measured |
| --- | --- | --- |
| O=C1CN(/N=C/c2ccc([N+](=O)[O-])o2)C(=O)N1 [Nitrofurantoin] | 98 | – |
| N[C@@H]1[C@H]2CN(c3nc4c(cc3F)c(=O)c(C(=O)O)cn4-c3ccc(F)cc3F)C[C@@H]12 [Trovafloxacin mesylate] | 116 | – |
| CC(=O)OCC1=C(C(=O)O)N2C(=O)[C@@H](NC(=O)Cc3cccs3)[C@H]2SC1 [Cephalothin sodium] | 79 | – |
| C=C1c2c(Cl)ccc(O)c2C(=O)C2=C(O)[C@]3(O)C(=O)C(C(N)=O)=C(O)[C@@H](N(C)C)[C@@H]3[C@@H](O)[C@H]12.O=C(O)c1cc(S(=O)(=O)O)ccc1O [Meclocycline sulfosalicylate salt] | 100 | Growth inhibition, Compound + rifampin (E. coli MG1655 [2]): 100% |
| CSCC1CN(/N=C/c2ccc([N+](=O)[O-])o2)C(=O)O1 (centres unmarked) [Nifuratel] | 108 | – |
| CO/N=C(\C(=O)N[C@@H]1C(=O)N2C(C(=O)O)=CCS[C@H]12)c1csc(N)n1 [Ceftizoxime] | 101 | – |
| CS(=O)(=O)O.C[C@H]1COc2c(C3(N)CC3)c(F)cc3c(=O)c(C(=O)O)cn1c23 [Pazufloxacin Mesylate] | 109 | – |
| C[C@@H](O)[C@H]1C(=O)N2C(C(=O)[O-])=C(SC3Cn4cnc[n+]4C3)[C@H](C)[C@H]12 (some centres unmarked) [Biapenem] | 113 | – |
| c1cnc2c(c1)ccc1cccnc12 [o-Phenanthroline] | 79 | – |
| Oc1c(I)cc(I)c2cccnc12 [Iodoquinol] | 70 | – |
| CCn1cc(C(=O)O)c(=O)c2cc(F)c(N3CCNC(C)C3)c(F)c21 (centres unmarked) [Lomefloxacin hydrochloride] | 107 | – |
| COc1c(N2CCNC(C)C2)c(F)cc2c(=O)c(C(=O)O)cn(C3CC3)c12 (centres unmarked) [Gatifloxacin] | 100 | – |
| CN[C@@H]1[C@H](O)[C@H](NC)[C@H]2O[C@@]3(O)C(=O)C[C@@H](C)O[C@H]3O[C@@H]2[C@H]1O.Cl.Cl.O.O.O.O.O [Spectinomycin dihydrochloride pentahydrate] | 96 | – |
| NC(=O)N/N=C/c1ccc([N+](=O)[O-])o1 [Furacilin] | 76 | – |
| CC[C@H]1OC(=O)[C@H](C)[C@@H](O[C@H]2C[C@@](C)(OC)[C@@H](O)[C@H](C)O2)[C@H](C)[C@@H](O[C@@H]2O[C@H](C)C[C@H](N(C)C)[C@H]2O)[C@](C)(O)C[C@@H](C)C(=O)[C@H](C)[C@H]2OC(=O)O[C@@]21C [Davercin] | 114 | – |
| Cc1oc(=O)oc1COC(=O)N1CC[C@@H](N2CC/C(=C\C3=C(C(=O)O)N4C(=O)[C@@H](NC(=O)/C(=N/O)c5nsc(N)n5)[C@H]4SC3)C2=O)C1 [Ceftobiprole medocaril] | 106 | – |
| CCn1cc(C(=O)O)c(=O)c2cc(F)c(N3CCNC(C)C3)c(F)c21 (centres unmarked) [Lomefloxacin] | 99 | – |
| CCn1nc(C(=O)O)c(=O)c2cc3c(cc21)OCO3 [Cinoxacin] | 88 | – |
| CC1(C)S[C@@H]2[C@H](NC(=O)C(c3ccccc3)S(=O)(=O)O)C(=O)N2[C@H]1C(=O)O.[Na].[Na] (some centres unmarked) [Sulbenicillin Sodium] | 90 | – |
